Reference: patent publication US12144814B2, “Compositions containing paraxanthine and beta-hydroxybutyrate or precursor for increasing neurological and physiological performance” (priority 2023, dated 2024)

Tests used:
healthy young adults = experiment: Berg-Washington Card Sorting Task Test; type: in vivo; details: 200 mg paraxanthine, 5 g BHB, 200 mg paraxanthine and 5 g BHB
Text: (§1) The Berg-Washington Card Sorting Task (BCST) test is a test routinely used in the field to evaluate cognitive flexibility. The BCST test focuses on basic cognitive flexibility or set-shifting between old vs. new rule changes. The test involves reasoning, learning, executive control, and attention shifting. It is particularly sensitive to the subject's inability to shift set. Cards are shown with different colors (e.g., red, green, yellow, blue), different designs (e.g., circle, triangle, star, plus sign) and different numbers of symbols (e.g., 1-4) on the computer screen. Participants are asked to sort the cards by matching colors and/or designs and/or number of symbols, where the instruction for how to sort the cards can change, at different times during the test. Number of correct responses and number of errors (particular perservative errors, where the participant incorrectly continues sorting the cards under an old instruction, after a new instruction is given) are recorded. When running each such tests, subjects are given either paraxanthine+BHB, paraxanthine alone, BHB alone, or a placebo. The dosage amounts are 200 mg paraxanthine and 5 g of BHB, 200 mg of paraxanthine alone, 5 g of BHB alone, or a placebo. The testing is conducted under double blind, placebo controlled conditions. […]

[1] = tested on: healthy trained male runners; experiment: Berg-Washington Card Sorting Task Test before and after 10 km treadmill run; type: in vivo; details: 200 mg paraxanthine, 200 mg caffeine, 5 g BHB, and combinations, after 10 km treadmill run
Text: as §1, with “When running each such tests, subjects are given either paraxanthine+BHB, paraxanthine alone, BHB alone, or a placebo. The dosage amounts are 200 mg paraxanthine and 5 g of BHB, 200 mg of paraxanthine alone, 5 g of BHB alone, or a placebo.” left out, “conditions. The subjects include 12 healthy trained male runners, aged 26±5 years. Baseline cognition tests are administered (PRE), the given supplement is ingested, and after 60 minutes of rest, a pre-race cognition test (PRE-EX) is administered.” for “conditions.”

[2] = tested on: healthy trained male runners; experiment: Vigilance Task Test before and after 10 km treadmill run; type: in vivo; details: 200 mg paraxanthine, 200 mg caffeine, 5 g BHB, and combinations, FIG. 13
Text: The Vigilance Task Test is another test routinely used in the field, and is used to evaluate a participants ability to sustain attention. The Vigilance Task Test is a sustained attention, reaction timed task test that measures the speed with which participants respond to a visual stimulus. The subjects respond to visual stimuli (e.g., a red dot) by pressing a key as soon as it appears on the computer screen. The light turns on at random, e.g., roughly every couple of seconds or so during the test. The speed of response is measured. Due to the random nature of the test, there is no learning effect. Mean response time is recorded. […] The testing is conducted under double blind, placebo controlled conditions. The subjects include 12 healthy trained male runners, aged 26±5 years. Baseline cognition tests are administered (PRE), the given supplement is ingested, and after 60 minutes of rest, a pre-race cognition test (PRE-EX) is administered. A 10 km run on a treadmill is then performed, followed by a post-race cognition test (POST), The cognition tests include a Vigilance Task Test (measuring the ability to remain heedfully vigilant) and a Berg-Washington Card Sorting Task Test (measuring cognitive flexibility).

[3] = Clinical Resting Energy Expenditure study; type: in vivo; details: paraxanthine 100 mg or 300 mg; BHB 5 g; paraxanthine 100 mg or 300 mg with BHB 5 g; 180-day period
Method: FIGS. 16A-16B show expected results of a clinical Resting Energy Expenditure study, where participants are supplemented with paraxanthine alone (100 mg or 300 mg), BHB alone (5 g), or paraxanthine (100 mg or 300 mg) in combination with BHB (5 g) over a 180-day period. […] Because of the presence of the BHB ketone body component, such increased metabolic rate is also more likely to occur within the context of ketogenic state, where fat is principally used as the caloric energy source for the increased resting metabolic rate.

[4] = cited from earlier work
adenosine A1 receptors = biological target: T1, adenosine A1 receptors (Homo sapiens, UniProt P30542); details: compared with caffeine; cited from earlier work
T1 sequence (P30542 1-326): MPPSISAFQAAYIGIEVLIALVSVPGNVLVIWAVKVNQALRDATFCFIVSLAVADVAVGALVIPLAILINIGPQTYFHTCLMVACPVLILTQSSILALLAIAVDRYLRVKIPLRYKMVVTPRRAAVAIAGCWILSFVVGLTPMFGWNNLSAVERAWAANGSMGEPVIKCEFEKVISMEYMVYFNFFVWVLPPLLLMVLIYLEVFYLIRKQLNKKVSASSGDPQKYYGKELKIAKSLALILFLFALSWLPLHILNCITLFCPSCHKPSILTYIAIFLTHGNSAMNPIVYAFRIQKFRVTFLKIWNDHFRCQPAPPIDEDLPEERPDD

## Cn1c(=O)[nH]c2ncn(C)c2c1=O [paraxanthine, 1,7-dimethylxanthine]
Healthy young adults; FIG. 7
  Berg-Washington Card Sorting Task Test number of correct responses: significant increase in the number of correct responses
Healthy young adults; FIG. 8
  Berg-Washington Card Sorting Task Test number of errors: reduction in the number of errors
[1]; FIG. 12A
  Berg-Washington Card Sorting Task Test correct responses, POST relative to PRE: some improvement in correct responses
[1]; FIGS. 12B-12D
  Berg-Washington Card Sorting Task Test errors, POST relative to PRE: reduced errors
[2]
  Vigilance Task Test response times: some benefit
[3]
  resting energy expenditure: some increase in resting energy expenditure
[4]; elimination half-life, FIG. 3
  half-life: 3.1 h
[4]; in vivo
  Total plasma clearance: 2.20 mL/min/kg
Adenosine A1 receptors
  binding potency for adenosine A1 receptors: higher binding potencies
